Experimental data taken from patent US20190231688A1, “METHOD OF ADMINISTERING EMULSION FORMULATIONS OF AN NK-1 RECEPTOR ANTAGONIST” (Heron Therapeutics, Inc., priority 2018, published 2019).

Test: Pharmacokinetics of aprepitant emulsion versus fosaprepitant solution, intravenous
Assay type: in vivo, male Sprague-Dawley rats
Conditions: rat, 14 mg/kg aprepitant equivalent
Method: The pharmacokinetics of an aprepitant emulsion prepared according to Example 1 was determined. Two groups of six male Sprague-Dawley rats each were injected intravenously with, respectively, fosaprepitant in solution or aprepitant emulsion prepared according to Example 1. All drugs were administered at an effective concentration equivalent to 14 mg/kg aprepitant. Blood from all rats was collected at the appropriate time intervals and processed to plasma by centrifugation. Plasma samples were analyzed by LC-MS/MS for aprepitant and fosaprepitant, as appropriate. A plasma concentration versus time curve of aprepitant for the emulsion described in Example 1 and for fosaprepitant is presented in FIG. 2 (fosaprepitant in solution, •; aprepitant emulsion, ▴). The curves indicate the initial aprepitant level reached immediately after injection of the aprepitant emulsion was almost 3 times higher than the initial aprepitant level reached immediately after injection of the fosaprepitant solution.

Compound: C[C@@H](O[C@H]1OCCN(Cc2nc(O)n(P(=O)(O)O)n2)[C@H]1c1ccc(F)cc1)c1cc(C(F)(F)F)cc(C(F)(F)F)c1 [fosaprepitant]
- Conversion of fosaprepitant to aprepitant: delay in the conversion of fosaprepitant to aprepitant
